Test results taken from patent US20240043435A1, “TYK-2 INHIBITOR” (BEIGENE, LTD., priority 2020, published 2024).

Assays:
pSTAT5/GM-CSF = pSTAT5/GM-CSF cellular assay (JAK2 selectivity); assay type: cell-based; details: for Selectivity fold (TYK2/JAK2): pSTAT5/GM-CSF IC50 over pSTAT4/IL-12 IC50
[1] = biological target: T1, TYK2-JH2 (aa 575-869, in-house) protein (Homo sapiens, UniProt P29597); assay: TYK2-JH2 biochemical assay (HTRF probe displacement); assay type: binding; details: Biochemical assay; read-out: TYK2-JH2 IC50
T1 construct: TYK2-JH2 (aa 575-869, in-house) protein; made in house
Outline: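 Recombinant TYK2-JH2 (0.2 nM) was pre-incubated 0.5 h at room temperature with compounds (10 doses, 5-fold dilution; 500× DMSO stocks from 500 uM) in 20 mM HEPES pH 7.5, 10 mM MgCl2, 0.005% BSA, 2 mM DTT, 0.015% Brij-35. Probe displacement was read by HTRF (ex337, em620/665 nm); IC50 from four-parameter logistic fit.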

[2] = system: JAK2, TYK2/p-STAT4 (Tyr693) activated by IL-12 in NK-92 cell line; assay: IL-12-JAK2, TYK2/p-STAT4 (Tyr693) inhibition IC50 cellular assay; assay type: cell-based; details: NK92, Cellular assay; read-out: pSTAT4/IL-12 IC50
Outline: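 NK-92 cells were starved overnight without IL-2 and preincubated 1 h at 37° C with compound (8 doses, 10000–0.61 nM, 4-fold, 0.2% DMSO). They were then stimulated with IL-12 (40 ng/ml final) for 30 min. Lysate p-STAT4 (Tyr693) was read by AlphaLISA SureFire; IC50 from four-parameter logistic fit.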

T1 sequence (P29597 575-869): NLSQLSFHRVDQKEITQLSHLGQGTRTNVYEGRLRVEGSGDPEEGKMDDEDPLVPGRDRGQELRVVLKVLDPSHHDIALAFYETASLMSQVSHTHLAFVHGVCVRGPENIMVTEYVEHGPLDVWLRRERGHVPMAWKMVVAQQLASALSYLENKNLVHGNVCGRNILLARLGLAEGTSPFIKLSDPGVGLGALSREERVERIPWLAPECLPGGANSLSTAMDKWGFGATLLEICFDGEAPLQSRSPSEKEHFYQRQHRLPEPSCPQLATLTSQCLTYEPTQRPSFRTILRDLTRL

| SMILES | IC50 (pSTAT5/GM-CSF) [nM] | IC50 [1] [nM] | IC50 [2] [nM] | Selectivity fold (TYK2/JAK2) (pSTAT5/GM-CSF) [fold] |
| --- | --- | --- | --- | --- |
| CC(=O)Nc1cc(Nc2cc(OC[C@H](C)O)cc(S(C)(=O)=O)c2)c(-c2ccn(C)n2)cn1 [Example J55, (S)-N-(4-((3-(2-hydroxypropoxy)-5-(methylsulfonyl)phenyl)amino)-5-(1-methyl-1H-pyrazol-3-yl)pyridin-2-yl)acetamide] | > 10000 | 0.033 | 11.4 | >878 |
| CC(=O)Nc1cc(Nc2cc(OCCO)cc(S(C)(=O)=O)c2)c(-c2ccn(C)n2)cn1 [Example J56, N-(4-((3-(2-hydroxyethoxy)-5-(methylsulfonyl)phenyl)amino)-5-(1-methyl-1H-pyrazol-3-yl)pyridin-2-yl)acetamide] | > 10000 | 0.044 | 30.1 | >332 |
| CC(=O)Nc1cc(Nc2cc(OC[C@@H](C)O)cc(S(C)(=O)=O)c2)c(-c2ccn(C)n2)cn1 [Example J57, (R)-N-(4-((3-(2-hydroxypropoxy)-5-(methylsulfonyl)phenyl)amino)-5-(1-methyl-1H-pyrazol-3-yl)pyridin-2-yl)acetamide] | > 10000 | 0.045 | 15.3 | >653 |
| CC(=O)Nc1cc(Nc2cc(OCC(C)C)cc(S(C)(=O)=O)n2)c(-c2ccn(C)n2)cn1 [Example J59, N-(4-((4-isobutoxy-6-(methylsulfonyl)pyridin-2-yl)amino)-5-(1-methyl-1H-pyrazol-3-yl)pyridin-2-yl)acetamide] | > 10000 | 0.029 | 1.31 | >7633 |
| CC[C@H](C)Oc1cc(Nc2cc(NC(C)=O)ncc2-c2ccn(C)n2)nc(S(C)(=O)=O)c1 [Example J60, (S)-N-(4-((4-(sec-butoxy)-6-(methylsulfonyl)pyridin-2-yl)amino)-5-(1-methyl-1H-pyrazol-3-yl)pyridin-2-yl)acetamide] | > 10000 | 0.021 | 0.797 | >12547 |

Second part, led by results:

| IC50 (pSTAT5/GM-CSF) [nM] | IC50 [1] [nM] | IC50 [2] [nM] | SMILES | Selectivity fold (TYK2/JAK2) (pSTAT5/GM-CSF) [fold] |
| --- | --- | --- | --- | --- |
| > 10000 | 0.025 | 0.497 | CC(=O)Nc1cc(Nc2cc(OC(F)F)cc(S(C)(=O)=O)n2)c(-c2ccn(C)n2)cn1 [Example J58, N-(4-((4-(difluoromethoxy)-6-(methylsulfonyl)pyridin-2-yl)amino)-5-(1-methyl-1H-pyrazol-3-yl)pyridin-2-yl)acetamide] | >20120 |
| > 10000 | 0.019 | 1.42 | CC(=O)Nc1cc(Nc2cc(C3CCOCC3)cc(S(C)(=O)=O)n2)c(-c2ccn(C)n2)cn1 [Example J61, N-(5-(1-methyl-1H-pyrazol-3-yl)-4-((6-(methylsulfonyl)-4-(tetrahydro-2H-pyran-4-yl)pyridin-2-yl)amino)pyridin-2-yl)acetamide] | >7042 |
| > 10000 | 0.037 | 4.85 | CC(=O)Nc1cc(Nc2cc(OC(F)F)cc(S(C)(=O)=O)c2)c(-c2ccn(C)n2)cn1 [Example J62, N-(4-((3-(difluoromethoxy)-5-(methylsulfonyl)phenyl)amino)-5-(1-methyl-1H-pyrazol-3-yl)pyridin-2-yl)acetamide] | >2061 |
| > 10000 | 0.018 | 0.462 | CC(=O)Nc1cc(Nc2nc(S(C)(=O)=O)ccc2OC(F)F)c(-c2ccn(C)n2)cn1 [Example J63, N-(4-((3-(difluoromethoxy)-6-(methylsulfonyl)pyridin-2-yl)amino)-5-(1-methyl-1H-pyrazol-3-yl)pyridin-2-yl)acetamide] | >21645 |
| 2010 | 0.055 | 0.174 | CC(=O)Nc1cc(Nc2cccc(S(C)(=O)=O)n2)c(-c2ccn(C3CC3)n2)cn1 [Example M1, N-(5-(1-cyclopropyl-1H-pyrazol-3-yl)-4-((6-(methylsulfonyl)pyridin-2-yl)amino)pyridin-2-yl)acetamide] | 11551 |
